Source: patent US9988343B2, “Inhibitors of histone deacetylase” (Dana-Farber Cancer Institute, Inc., priority 2013, dated 2018)
Like-named read-outs stand apart in the source and are kept apart here.

Tests used:
[1] = target: HDAC1 (Homo sapiens, UniProt Q13547); assay: HDAC1 inhibitory activity (IC50); type: biochemical
Procedure: (§1) HDAC inhibitor compounds designed and synthesized in accordance with the present invention were tested for their inhibitor activity against several different HDAC isoforms.

[2] = target: HDAC2 (Homo sapiens, UniProt Q92769); assay: HDAC2 inhibitory activity (IC50); type: biochemical
Procedure: as §1

[3] = target: HDAC3 (Homo sapiens, UniProt O15379); assay: HDAC3 inhibitory activity (IC50); type: biochemical
Sequence of HDAC3 (O15379 whole entry): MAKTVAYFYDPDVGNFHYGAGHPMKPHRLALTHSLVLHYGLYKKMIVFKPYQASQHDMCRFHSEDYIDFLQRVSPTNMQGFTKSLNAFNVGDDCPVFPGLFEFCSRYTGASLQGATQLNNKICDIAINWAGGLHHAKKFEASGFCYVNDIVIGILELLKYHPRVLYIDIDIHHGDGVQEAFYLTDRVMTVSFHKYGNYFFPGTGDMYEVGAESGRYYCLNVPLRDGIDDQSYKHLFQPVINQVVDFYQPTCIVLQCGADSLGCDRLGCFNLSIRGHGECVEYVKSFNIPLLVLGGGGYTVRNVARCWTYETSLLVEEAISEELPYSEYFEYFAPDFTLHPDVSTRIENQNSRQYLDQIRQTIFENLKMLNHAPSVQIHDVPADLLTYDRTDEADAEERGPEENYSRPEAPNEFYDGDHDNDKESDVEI
Sequence of HDAC3 (Q9Y618 395-489 partner limits assumed): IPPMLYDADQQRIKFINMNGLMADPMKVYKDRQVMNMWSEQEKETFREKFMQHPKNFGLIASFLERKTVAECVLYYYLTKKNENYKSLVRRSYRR
Procedure: as §1

[4] = target: T1, HDAC6 (Homo sapiens, UniProt Q9UBN7); assay: HDAC6 inhibitory activity (IC50); type: biochemical
T1 sequence (Q9UBN7 1-1215): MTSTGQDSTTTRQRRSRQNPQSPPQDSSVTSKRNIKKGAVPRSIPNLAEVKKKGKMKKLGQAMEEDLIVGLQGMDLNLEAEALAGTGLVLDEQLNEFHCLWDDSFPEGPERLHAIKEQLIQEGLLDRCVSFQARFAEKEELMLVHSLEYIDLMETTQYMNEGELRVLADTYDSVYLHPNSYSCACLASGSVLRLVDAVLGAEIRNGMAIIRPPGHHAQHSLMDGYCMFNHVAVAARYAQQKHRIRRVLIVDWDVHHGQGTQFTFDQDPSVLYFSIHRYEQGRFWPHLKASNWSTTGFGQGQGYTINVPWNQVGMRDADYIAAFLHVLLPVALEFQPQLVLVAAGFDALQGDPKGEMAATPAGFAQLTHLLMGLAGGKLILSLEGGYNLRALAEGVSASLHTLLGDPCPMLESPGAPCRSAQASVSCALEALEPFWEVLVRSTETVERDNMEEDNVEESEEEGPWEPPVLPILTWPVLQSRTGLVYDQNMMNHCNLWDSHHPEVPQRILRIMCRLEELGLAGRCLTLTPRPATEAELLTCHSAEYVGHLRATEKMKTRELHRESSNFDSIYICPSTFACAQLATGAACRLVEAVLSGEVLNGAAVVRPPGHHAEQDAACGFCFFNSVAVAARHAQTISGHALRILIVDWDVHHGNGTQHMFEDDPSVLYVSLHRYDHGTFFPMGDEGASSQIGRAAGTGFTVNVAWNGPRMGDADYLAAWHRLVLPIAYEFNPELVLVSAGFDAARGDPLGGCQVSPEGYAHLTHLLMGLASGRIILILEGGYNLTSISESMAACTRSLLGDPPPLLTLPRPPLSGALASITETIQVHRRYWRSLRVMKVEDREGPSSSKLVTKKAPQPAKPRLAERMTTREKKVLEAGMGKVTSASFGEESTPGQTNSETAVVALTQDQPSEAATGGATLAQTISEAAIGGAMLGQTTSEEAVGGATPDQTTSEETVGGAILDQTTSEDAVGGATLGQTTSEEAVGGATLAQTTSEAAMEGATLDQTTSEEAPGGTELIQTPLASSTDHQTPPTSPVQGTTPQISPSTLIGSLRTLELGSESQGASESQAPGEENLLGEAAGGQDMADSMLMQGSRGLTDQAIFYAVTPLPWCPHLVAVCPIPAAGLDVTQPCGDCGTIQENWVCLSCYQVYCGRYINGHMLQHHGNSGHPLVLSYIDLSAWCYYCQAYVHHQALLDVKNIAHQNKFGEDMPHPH
Procedure: as §1

[5] = test system: MM cell lines; assay: Cell growth inhibition assay (MTT) in MM cell lines; type: cell-based, human; details: MM.1S, RPMI8226, U266, OPM1, H929; 1.875-30 μM, 48 h and 72 h, MTT (FIG. 6A)
Procedure: To measure proliferation of MM cells, the rate of DNA synthesis was measured by ^3[H]-thymidine (Perkin-Elmer) uptake.
The growth inhibitory effect of Merck60 (HDACL, 2 inhibitor previously reported as compound #60 by Method et al. Bioorg. Med. Chem. Lett. 2008. 18(3):973-8) versus MS275 (HDAC1, 2, 3 inhibitor) was examined in MM cell lines using MTT assay. MM cells were cultured with Merck60 (left panel) or MS275 (right panel) for 48 hours. Cell growth was assessed by MTT assay. All experiments were performed 3 times in quadruplicate. Data represent mean±SD.
Cell growth was assessed by MTT assay. All experiments were performed 3 times in quadruplicate. Data represent mean±SD.

[6] = test system: RPMI8226 cells; assay: Combination with bortezomib, MTT cytotoxicity, combination index; type: cell-based, human; details: for CI (combination index): RPMI8226, MTT, 24 h
Procedure: The combined effect of drugs was analyzed by isobologram analysis using the Compusyn software program (ComboSyn, Inc.); a combination index (CI)<1 is indicative of a synergistic effect.
All experiments were performed 3 times in quadruplicate. Data represent mean±SD (FIG. 7D).

[7] = test system: MM.1S cells co-cultured with BMSCs; assay: 3[H]-thymidine incorporation, MM.1S co-cultured with BMSCs; type: cell-based, human; details: 7.5, 15, 30 μM, 48 hours (FIG. 6D)
Procedure: To measure proliferation of MM cells, the rate of DNA synthesis was measured by ^3[H]-thymidine (Perkin-Elmer) uptake. […] Cell proliferation was measured by 3[H]-thymidine incorporation assay. Data represent mean±SD from quadruplicate cultures (FIG. 6D).

[8] = test system: MM.1S cells; assay: Immunoblot of caspase-3 and PARP cleavage; type: cell-based, human; details: 15 μM (FIG. 6E)
[9] = test system: MM.1S cells; assay: Immunoblot of histone and α-tubulin acetylation in MM.1S cells; type: cell-based, human; details: 12 h, Compound 10 10 and 20 μM
[10] = target: T1, HDAC6; assay: Western blot for acetylated alpha-tubulin (HDAC6 inhibition in cells); type: cell-based; details: 10 or 20 um (FIG. 8A)
[11] = test system: MM.1S xenograft; assay: Subcutaneous MM.1S murine xenograft model; type: in vivo; details: SCID mice
Procedure: CB17 SCID mice (48-54 days old) were purchased from Charles River Laboratories (Wilmington, Mass.). All animal studies were conducted according to protocols approved by the Animal Ethics Committee of the Dana-Farber Cancer Institute. After irradiation (200cGy), mice were subcutaneously injected with 5×10^6 MM.1S cells in the right flank. […] Tumor size was measured every three days, and tumor volume was calculated with the formula: V=0.5 (a×b^2), where “a” is the long diameter of the tumor and “b” is the short diameter of the tumor. Mice were sacrificed when the tumor reached 2 cm in length or 2 cm^3 volume, or if mice appeared moribund to prevent unnecessary morbidity. Survival was evaluated from the first day of the treatment until death. […] These SCID mice were subcutaneously injected with 5×10^6 MM.1S cells. […] Tumor volume was calculated from caliper measurements twice weekly, and data represent mean±SD (FIG. 9A).

Sequence of HDAC1 (Q13547 whole entry): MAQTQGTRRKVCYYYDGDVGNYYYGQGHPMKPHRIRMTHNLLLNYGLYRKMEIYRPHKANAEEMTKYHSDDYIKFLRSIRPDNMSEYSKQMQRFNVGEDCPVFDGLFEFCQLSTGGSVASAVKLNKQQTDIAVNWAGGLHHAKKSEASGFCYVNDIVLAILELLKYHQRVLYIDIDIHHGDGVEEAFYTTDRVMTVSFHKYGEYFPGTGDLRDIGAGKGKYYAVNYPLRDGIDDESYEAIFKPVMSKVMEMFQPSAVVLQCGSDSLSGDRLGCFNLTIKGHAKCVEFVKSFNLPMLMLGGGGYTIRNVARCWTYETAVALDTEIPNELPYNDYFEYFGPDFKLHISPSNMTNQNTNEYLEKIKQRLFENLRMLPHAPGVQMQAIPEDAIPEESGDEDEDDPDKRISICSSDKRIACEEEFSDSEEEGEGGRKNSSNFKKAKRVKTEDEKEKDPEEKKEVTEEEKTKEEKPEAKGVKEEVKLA
Sequence of HDAC2 (Q92769 whole entry): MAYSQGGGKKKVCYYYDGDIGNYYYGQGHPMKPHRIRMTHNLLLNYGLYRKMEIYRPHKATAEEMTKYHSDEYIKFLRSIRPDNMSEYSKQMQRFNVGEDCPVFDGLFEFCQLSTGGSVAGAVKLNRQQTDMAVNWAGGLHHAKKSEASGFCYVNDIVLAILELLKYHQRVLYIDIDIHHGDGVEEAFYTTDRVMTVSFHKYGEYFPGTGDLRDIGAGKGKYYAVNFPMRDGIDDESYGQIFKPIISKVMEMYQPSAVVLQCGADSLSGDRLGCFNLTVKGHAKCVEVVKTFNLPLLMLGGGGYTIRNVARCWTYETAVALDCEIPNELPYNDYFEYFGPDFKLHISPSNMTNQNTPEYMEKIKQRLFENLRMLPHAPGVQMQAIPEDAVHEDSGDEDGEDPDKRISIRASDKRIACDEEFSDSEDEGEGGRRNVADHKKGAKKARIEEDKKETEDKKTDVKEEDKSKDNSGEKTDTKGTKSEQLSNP

- IC50 ([1]; Table 2, read-out: HDAC1): 0.922 µM
- IC50 ([1]; Table 3, read-out: IC50 against the deacetylase activity of HDAC1): 2 µM
- IC50 ([2]; Table 2, read-out: HDAC2): 1.49 µM
- IC50 ([2]; Table 3, read-out: IC50 against the deacetylase activity of HDAC2): 2.2 µM
- IC50 ([3]; Example 8, read-out: HDAC3 IC50): 0.289 µM
- IC50 ([3]; Table 2, read-out: HDAC3): 0.14 µM
- IC50 ([4]; Table 2, read-out: HDAC6): 79 µM
- IC50 ([4]; Table 3, read-out: IC50 against the deacetylase activity of HDAC6): > 20 µM
- inhibition of HDAC6 by acetylated alpha-tubulin Western blot [10]: did not inhibit HDAC6
Structure (SMILES): Nc1ccccc1NC(=O)c1cnccn1 [Compound 10, N-(2-aminophenyl)pyrazine-2-carboxamide]
- MM cell growth [5]: significantly inhibited MM cell growth in a dose-dependent fashion
- CI (combination index) ([6]; BG45 5 μM + bortezomib 2 nM): 1.04
- CI (combination index) ([6]; BG45 5 μM + bortezomib 3 nM): 0.83
- CI (combination index) ([6]; BG45 5 μM + bortezomib 4 nM): 0.84
- CI (combination index) ([6]; BG45 10 μM + bortezomib 2 nM): 1.19
- CI (combination index) ([6]; BG45 10 μM + bortezomib 3 nM): 0.78
- CI (combination index) ([6]; BG45 10 μM + bortezomib 4 nM): 0.77
- CI (combination index) ([6]; BG45 20 μM + bortezomib 2 nM): 0.91
- CI (combination index) ([6]; BG45 20 μM + bortezomib 3 nM): 0.67
- CI (combination index) ([6]; BG45 20 μM + bortezomib 4 nM): 0.63
- bortezomib-induced cytotoxicity ([6]; RPMI8226, bortezomib 2-4 nM + 5, 10, 20 μM Compound 10, 24 h (FIG. 7D)): synergistically enhanced bortezomib-induced cytotoxicity
- MM cell proliferation in the presence of BMSCs [7]: markedly inhibited MM cell growth even in the presence of BMSCs
- caspase-3/PARP cleavage (apoptosis) [8]: induces caspase-dependent apoptosis
- histone acetylation ([9]; LBH589 50 and 100 nM (FIG. 6F left)): significantly induced acetylation of histone H2A, H3, and H4
- α-tubulin acetylation (biomarker of HDAC6 inhibition) ([9]; LBH589 50 and 100 nM (FIG. 6F right)): did not increase α-tubulin acetylation
- MM tumor growth (tumor volume) ([11]; 15 and 50 mg/kg IP 5 days a week for 3 weeks, versus control, day 22 p<0.05 (FIG. 9A)): significantly inhibited MM tumor growth
- tumor growth, combination with bortezomib ([11]; Compound 10 50 mg/kg + bortezomib 0.5 mg/kg sc twice a week, p<0.05): further enhanced either single agent activity
